Measurements taken from the SangsterLogP compilation.

Assay: method code SF-AS, from DOI: 10.1021/je900189v
Work on `CNS(=O)(=O)c1ccc(N)cc1` yielded a logP of 0.07. Compound `O=[N+]([O-])c1ccccc1NS(=O)(=O)c1ccccc1` has a logP of 2.08. In the case of `Nc1ccc(S(=O)(=O)Nc2cc(Cl)ccc2Cl)cc1`, the logP is reported as 2.45. `Cc1cc(N)ccc1S(=O)(=O)Nc1ccccc1Cl` showed a logP of 2.66. Work on `Nc1ccc(S(=O)(=O)Nc2cc(Cl)c(Cl)cc2Cl)cc1` yielded a logP of 3.17. Work on `O=S(=O)(Nc1cccnc1Cl)c1ccccc1` yielded a logP of 1.89. Compound `COc1c(Cl)cccc1NS(=O)(=O)c1ccc(N)cc1` has a logP of 2.43. With `Cc1ccc(Cl)cc1NS(=O)(=O)c1ccc(N)cc1` the logP was 2.73. In the case of `Cc1ccc(NS(=O)(=O)c2ccc(N)cc2)cc1Cl`, the logP is reported as 2.92. `O=S(=O)(Nc1cccc(Cl)c1Cl)c1ccccc1` gave a logP of 3.45. With `Cc1ccc(NS(=O)(=O)c2ccc([N+](=O)[O-])cc2)nc1` the logP was 1.01. For `O=S(=O)(Nc1ccc(Cl)cc1)c1ccccc1`, the logP was 3.44. `O=S(=O)(Nc1ncccc1Cl)c1ccccc1` showed a logP of 1.54. For `COc1ccc(NS(=O)(=O)c2ccc(N)cc2)cc1`, the logP was 1.58. Compound `Nc1ccc(S(=O)(=O)Nc2ccc([N+](=O)[O-])cc2)cc1` has a logP of 1.88. In the case of `O=[N+]([O-])c1ccc(S(=O)(=O)Nc2nccs2)cc1`, the logP is reported as 1.19. `Nc1ccc(S(=O)(=O)Nc2ccccc2Cl)c(Cl)c1` showed a logP of 2.98. With `Nc1ccc(S(=O)(=O)Nc2ccc(I)cc2)cc1` the logP was 2.82. `O=[N+]([O-])c1ccc(NS(=O)(=O)c2ccccc2)cc1` gave a logP of 2.09. With `O=S(=O)(Nc1ccccc1Cl)c1ccccc1` the logP was 2.72. `CCN(CC)S(=O)(=O)c1ccc(N)cc1` showed a logP of 1.52. In the case of `CCc1ccc(NS(=O)(=O)c2ccc(N)cc2)cc1`, the logP is reported as 2.62. `Nc1ccc(S(=O)(=O)Nc2ccc(Cl)cc2)cc1` gave a logP of 2.47. With `Cc1cc(N)ccc1S(=O)(=O)Nc1ccccc1[N+](=O)[O-]` the logP was 2.19. For `CC(=O)Nc1ccncc1NS(=O)(=O)c1ccc([N+](=O)[O-])cc1`, the logP was 0.71. Compound `Nc1ccc(S(=O)(=O)Nc2ccc(Cl)cc2)c(Cl)c1` has a logP of 2.48. For `Nc1ccc(S(=O)(=O)Nc2ccc([N+](=O)[O-])cc2Br)cc1`, the logP was 1.87. Compound `CCOc1ccc(NS(=O)(=O)c2ccc([N+](=O)[O-])cc2)cc1` has a logP of 2.23. With `Cc1cc(Cl)ccc1NS(=O)(=O)c1ccc(N)cc1` the logP was 2.65. For `Cc1ccc(NS(=O)(=O)c2ccc(N)cc2)c(Cl)c1`, the logP was 2.37. With `Nc1ccc(S(=O)(=O)Nc2ccc(Cl)c(Cl)c2)cc1` the logP was 2.64. Compound `Cc1cc(N)ccc1S(=O)(=O)Nc1ccc(Cl)cc1` has a logP of 2.73.
